Laboratory results as given in PMC12491701, “Discovery of an APP-selective BACE1 inhibitor for Alzheimer's disease” (Neurotherapeutics, 2025).
Values after ≈ are worked out from the molar mass of the structure shown.

How the values were obtained:
Kinetic solubility assay = format: physicochemical; conditions: aqueous buffer, kinetic from dmso stock, PBS pH 7.4, 37 °C
Description: FAH65 and its enantiomers at 10 mM in 100% DMSO was diluted in PBS pH 7.4 to 100, 10, 1, and 0.1 µM; plus, a vehicle-only control. The solutions were incubated at 37 °C for 90 min and centrifuged at 16K x g for 5 min. An aliquot of each supernatant was analyzed by LC-MS/MS. A standard curve was generated by plotting the known amount of analyte per standard in DMSO vs. chromatographic peak […]
Kinetic solubility (µM) was calculated using the trendline equation with maximum chromatographic peak area observed in the aqueous sample. (Table S3)
Liver microsome stability assay
A 1 µL sample of 1 mM FAH65 and its enantiomers in 100% DMSO was added to 1 mL of 0.5 mg/mL human liver microsomes (Thermo Fisher Scientific, Cat# HMMPL) in PBS pH 7.4, 2 mM NADPH, and 2 mM MgCl2; and incubated at 37 °C for 120 min. Aliquots (50 µL) of the microsome solution were taken […]
quenching solution containing an internal standard. Solutions were clarified by centrifugation (16K x g, 5 min) and supernatants transferred to new tubes and lyophilized. Samples were reconstituted in 100 µL of 50/50/0.1 water/acetonitrile/formic acid prior to analysis via LC-MS/MS. […]
One µL FAH65 and its enantiomers (1 mM in 100% DMSO) was added to human peripheral blood plasma (Cat#70039, Stemcell Technologies Inc) diluted 2-fold in PBS (1000 µL, pH 7.4) and incubated […]

[1] = test system: CHO-7W cells expressing wildtype human APP; test: sAPPβ and Aβ1-42 production in CHO-7W cells (AlphaLISA); format: cell-based, Chinese hamster
Description: (§1) Culture Media was collected and frozen. Media was assayed using an AlphaLISA for Aβ1-42 (Perkin Elmer catalog # AL276C), sAPPα (R&D Systems catalog # AF1168 conjugated with Perkin Elmer acceptor beads catalog # 6772001 + 2B3 antibody from IBL catalog # 11088 biotinylated), and sAPPβ (Perkin Elmer AL276-acceptor + IBL catalog # 18957 biotinylated). For the assay, 2 μL of diluted or undiluted sample was added to a 384 well plate, followed by 2 μL of the respective antibody mixture. This was incubated for 1 h. Afterwards, 2 μL of donor beads was added to each well, followed by a 30-min incubation in the dark, after which the signal was read.

[2] = test system: CHO cells that express APP with the Swedish (Swe) K595N/M596L mutation; test: Aβ1-42 production in CHO-7W Swe cells; format: cell-based, Chinese hamster; conditions: 1 μM, 24-h treatment, in words
Description: as §1, with “The Chinese hamster ovary (CHO) cell line overexpressing human AβPP (7W) stably transfected with human APP or overexpressing APP with the Swedish (Swe) K595 N/M596L mutation were incubated with FAH compounds diluted to 1 μM overnight. Culture” for “Culture”

[3] = biological target: T1, potassium channel hERG (human) (Homo sapiens, UniProt Q12809); test: hERG [3H] dofitilide binding assay
T1 construct: Eurofins (CEREP PanLabs)
T1 sequence (Q12809 whole entry): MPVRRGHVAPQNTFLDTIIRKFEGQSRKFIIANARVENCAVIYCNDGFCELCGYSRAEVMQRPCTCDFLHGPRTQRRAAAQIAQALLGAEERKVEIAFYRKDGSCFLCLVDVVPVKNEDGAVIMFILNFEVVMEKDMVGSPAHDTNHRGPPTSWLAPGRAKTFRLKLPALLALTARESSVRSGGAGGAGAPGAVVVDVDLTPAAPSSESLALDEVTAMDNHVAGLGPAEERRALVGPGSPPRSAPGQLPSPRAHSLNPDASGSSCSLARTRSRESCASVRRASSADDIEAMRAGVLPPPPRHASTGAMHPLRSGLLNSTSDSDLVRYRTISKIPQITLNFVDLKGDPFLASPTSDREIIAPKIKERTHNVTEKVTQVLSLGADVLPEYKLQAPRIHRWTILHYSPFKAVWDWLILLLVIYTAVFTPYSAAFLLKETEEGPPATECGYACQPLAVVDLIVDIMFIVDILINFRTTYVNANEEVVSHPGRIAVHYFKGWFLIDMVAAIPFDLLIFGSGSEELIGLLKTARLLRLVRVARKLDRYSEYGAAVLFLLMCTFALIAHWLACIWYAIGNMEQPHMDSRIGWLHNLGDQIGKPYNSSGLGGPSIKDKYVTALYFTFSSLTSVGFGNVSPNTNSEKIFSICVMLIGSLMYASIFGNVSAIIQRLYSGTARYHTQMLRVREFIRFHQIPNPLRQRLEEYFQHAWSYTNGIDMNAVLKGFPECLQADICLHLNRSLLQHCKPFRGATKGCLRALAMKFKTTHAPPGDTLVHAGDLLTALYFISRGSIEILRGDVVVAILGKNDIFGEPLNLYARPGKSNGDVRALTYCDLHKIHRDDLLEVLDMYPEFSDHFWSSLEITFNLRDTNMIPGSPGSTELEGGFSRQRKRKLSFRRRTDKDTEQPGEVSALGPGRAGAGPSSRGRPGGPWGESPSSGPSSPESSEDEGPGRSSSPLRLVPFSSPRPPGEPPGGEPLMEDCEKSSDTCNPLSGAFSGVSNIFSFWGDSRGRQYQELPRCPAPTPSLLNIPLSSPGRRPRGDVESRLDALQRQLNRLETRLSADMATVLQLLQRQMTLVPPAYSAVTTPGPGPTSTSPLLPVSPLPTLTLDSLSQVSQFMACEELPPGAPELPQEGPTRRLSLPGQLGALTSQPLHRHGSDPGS
From the text: The raw data uncorrected for contribution of
Animals were euthanized at
biochemical analyses (Fig. S3).
at Lotus Separations (Princeton, NJ).

Pharmacokinetics in mice = format: in vivo, mouse; conditions: mice
Description: Wildtype or non-transgenic (NTg) C57Bl6 mice or Sprague-Dawley rats were dosed by oral (gavage) or subcutaneous (SQ) injection at 10 or 30 mg/kg, and animals were euthanized 1, 2, 6, and 8 h after administration by ketamine/xylazine over-anesthesia, in rats, CSF was also collected, followed by transcardial collection of blood for isolation of plasma and saline perfusion. Brain tissue was collected post-mortem for assessment of compound levels and biomarkers.
Analyses of compound levels in PK studies were performed in the UCLA Pasarow Mass Spectrometry Lab (PMSL; Julian Whitelegge, Ph.D., Director). Tissues were homogenized in a bead beater using 5 vol of ice-cold 80 % acetonitrile (1/5; mg of brain/μL of 80 % ACN). Plasma analytes were extracted using 4 vol of ice-cold acetonitrile (1/4; μL of plasma/μL of 100 % ACN). Solutions were clarified by centrifugation (16,000×g, 5 min) and the supernatants were transferred to new tubes and lyophilized. Samples were reconstituted in 100 μL of 50/50/0.1 (Water/Acetonitrile/Formic Acid) prior to analysis via liquid chromatography-tandem mass spectrometry (LC-MS/MS).
An internal standard (IS) was added to every sample to account for compound loss during sample processing. Standards were made in drug naïve plasma and tissue lysates with increasing amounts of analyte (S1, S2: 0 pmol/S3, S4: 1 pmol/S5, S6: 10 pmol/S7, S8: 100 pmol, S9, S10: 1000 pmol). The standard curve was made by plotting the known amount of analyte per standard vs. the ratio of measured chromatographic peak areas corresponding to the analyte over that of the IS (analyte/IS). The trendline equation was then used to calculate the absolute concentrations of each compound in plasma and tissue.
The targeted LC-MS/MS assay was developed using the multiple reaction monitoring (MRM) acquisition method on a 6460 triple quadrupole mass spectrometer (Agilent Technologies) coupled to a 1290 Infinity HPLC system (Agilent Technologies) with a Phenomenex analytical column (Kinetex 1.7 μm C18 100 Å 100 × 2.1 mm). The HPLC method utilized a mixture of solvent A (99.9/0.1 Water/Formic Acid) and solvent B (99.9/0.1 Acetonitrile/Formic Acid) and a gradient was use for the elution of the compounds (min/%B: 0/1, 3/1, 19/99, 20/1, 30/1). Two fragment ions were monitored at specific LC retention times to ensure specificity and accurate quantification in the complex biological samples. The normalized chromatographic peak areas were determined by taking the ratio of measured chromatographic peak areas corresponding to the compound over that of the internal standard (Analyte/IS).
The Tmax, Cmax, brain-to-plasma ratios and brain levels were then calculated using PK Solutions software (SummitPK).

With `Cc1cc(C2(c3cccc(-c4cncnc4)c3)N=C(N)N(C)C2=O)ccc1OC(F)F` (centres unmarked) [FAH65] the solubility kinetic at 90 min (Kinetic solubility assay) was 88 µM (≈ 37.3 µg/mL), the sAPPβ reduction [1] was greater than 90% and the sAPPβ production ([1]; 1 μM, 24-h treatment, in words) was “decrease”. For the same compound, the Aβ1-42 production ([1]; 1 μM, in words) was “decrease”, the Aβ1-42 [2] was “significantly decreases” and the EC50 [3] was greater than 10 µM. The IC50 [3] was greater than 10 µM, the Cmax (Pharmacokinetics in mice; C57Bl6, mouse, plasma, oral, 30 mg/kg) was roughly 50 ng/mL and the “brain Cmax” value (Pharmacokinetics in mice; oral, 30 mg/kg) was 74 ng/g. The “time of brain Cmax” value (Pharmacokinetics in mice; oral, 30 mg/kg) was 1 h and the “compound levels in plasma” value (Pharmacokinetics in mice; subcutaneous (SQ), 10 or 30 mg/kg) was “over 3000 ng/mL”.
